According to patent US12077503B2, “Substituted cyclic amides and their use as herbicides” (FMC CORPORATION, priority 2015, dated 2024):

Legend:
Format in all cases: in vivo
[1] = tested on: Kochia (Kochia scoparia); assay: Test A preemergence
How it was run: (§1)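 In a loam soil and sand blend, planted seeds got a preemergence directed soil spray, and young plants at the one- to two-leaf stage, 2–10 cm high, got a postemergence application; ~10 d greenhouse hold; injury rated visually, 0 = none, 100 = complete control.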

[2] = tested on: barnyardgrass (Echinochloa crus-galli); assay: Test A preemergence
How it was run: as §1

[3] = tested on: giant foxtail (Setaria faberii); assay: Test A preemergence
How it was run: as §1

[4] = tested on: pigweed (Amaranthus retroflexus); assay: Test A preemergence
[5] = tested on: ragweed (common ragweed, Ambrosia elatior); assay: Test A preemergence
How it was run: as §1

[6] = tested on: ryegrass, Italian (Italian ryegrass, Lolium multiflorum); assay: Test A preemergence
How it was run: as §1

[7] = tested on: Galium (catchweed bedstraw, Galium aparine); assay: Test A postemergence
How it was run: as §1

[8] = tested on: Kochia (Kochia scoparia); assay: Test A postemergence
How it was run: as §1

[9] = tested on: barnyardgrass (Echinochloa crus-galli); assay: Test A postemergence
How it was run: as §1

[10] = tested on: blackgrass (Alopecurus myosuroides); assay: Test A postemergence
How it was run: as §1

[11] = tested on: corn (Zea mays); assay: Test A postemergence
How it was run: as §1

[12] = tested on: giant foxtail (Setaria faberii); assay: Test A postemergence
How it was run: as §1

[13] = tested on: pigweed (Amaranthus retroflexus); assay: Test A postemergence
How it was run: as §1

[14] = tested on: ragweed (common ragweed, Ambrosia elatior); assay: Test A postemergence
How it was run: as §1

[15] = tested on: ryegrass, Italian (Italian ryegrass, Lolium multiflorum); assay: Test A postemergence
How it was run: as §1

[16] = tested on: wheat (Triticum aestivum); assay: Test A postemergence
How it was run: as §1

[17] = tested on: barnyardgrass (Echinochloa crus-galli); assay: Test B flooded paddy test; conditions: Flood, 250 g ai/ha; 0 to 100 scale where 0 is no effect and 100 is complete control; 13 to 15 d
How it was run: (§2)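 2-leaf plants; pots flooded 3 cm over soil; cpd added to paddy water; depth held; greenhouse 13–15 d; visual rating vs controls, 0 = no effect, 100 = complete control.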

[18] = tested on: ducksalad (Heteranthera limosa); assay: Test B flooded paddy test; conditions: Flood, 250 g ai/ha; 0 to 100 scale where 0 is no effect and 100 is complete control; 13 to 15 d
How it was run: as §2

[19] = tested on: rice (Oryra sativa); assay: Test B flooded paddy test; conditions: Flood, 250 g ai/ha; 0 to 100 scale where 0 is no effect and 100 is complete control; 13 to 15 d
How it was run: as §2

[20] = tested on: sedge, umbrella (small-flower umbrella sedge, Cyperus difformis); assay: Test B flooded paddy test; conditions: Flood, 250 g ai/ha; 0 to 100 scale where 0 is no effect and 100 is complete control; 13 to 15 d
How it was run: as §2

[21] = 125 g ai/ha, Preemergence, visual injury after approximately 10 d, 0 to 100 scale where 0 is no effect and 100 is complete control
[22] = Preemergence, 500 g ai/ha, visual injury approx. 10 d
[23] = 125 g ai/ha, postemergence, visual rating after approx. 10 d, 0 to 100 scale (0 no effect, 100 complete control)
[24] = Postemergence, 500 g ai/ha, 0 to 100 scale where 0 is no effect and 100 is complete control
[25] = 500 g ai/ha, preemergence, 0 to 100 scale, 0 = no effect, 100 = complete control
[26] = 500 g ai/ha, postemergence, visual injury, 0 to 100 scale (0 no effect, 100 complete control), approx. 10 d

Row | Compound | Plant response rating, Kochia [1, 21] | Plant response rating, Barnyardgrass [2, 21] | Plant response rating, Foxtail, Giant [3, 21] | Plant response rating, Pigweed [4, 21] | Plant response rating, Ragweed [5, 21] | Plant response rating, Ryegrass, Italian [6, 21] | Plant response rating, Galium [7, 23] | Plant response rating, Kochia [8, 23] | Plant response rating, Barnyardgrass [9, 23] | Plant response rating, Blackgrass [10, 23] | Plant response rating, Corn [11, 23] | Plant response rating, Foxtail, Giant [12, 23] | Plant response rating, Pigweed [13, 23] | Plant response rating, Ragweed [14, 23] | Plant response rating, Ryegrass, Italian [15, 23] | Plant response rating, Wheat [16, 23] | Plant response rating, Barnyardgrass [17] | Plant response rating, Ducksalad [18] | Plant response rating, Rice [19] | Plant response rating, Sedge, Umbrella [20] | also measured
1 | CC(C)Oc1cccc(C2CNC(=O)C2C(=O)Nc2cccc(F)c2F)c1 (centres unmarked) [Compound 553] | 60 | 90 | 90 | 30 | 40 | 70 | 60 | 30 | 90 | 50 | 80 | 70 | 20 | 30 | 60 | 40 | 65 | 100 | 10 | 0 | Kochia plant response rating (0 to 100 scale, 0 is no effect, 100 is complete control) [1, 22]: 80; Barnyardgrass plant response rating (0 to 100 scale, 0 is no effect, 100 is complete control) [2, 22]: 90; Foxtail, Giant plant response rating (0 to 100 scale, 0 is no effect, 100 is complete control) [3, 22]: 90; Pigweed plant response rating (0 to 100 scale, 0 is no effect, 100 is complete control) [4, 22]: 40; Ryegrass, Italian plant response rating (0 to 100 scale, 0 is no effect, 100 is complete control) [6, 22]: 70; Plant response rating, Galium [7, 24]: 60; Plant response rating, Kochia [8, 24]: 50; Plant response rating, Barnyardgrass [9, 24]: 90; Plant response rating, Blackgrass [10, 24]: 60; Plant response rating, Corn [11, 24]: 90; Plant response rating, Foxtail, Giant [12, 24]: 90; Plant response rating, Pigweed [13, 24]: 30; Plant response rating, Ragweed [14, 24]: 40; Plant response rating, Ryegrass, Italian [15, 24]: 70; Plant response rating, Wheat [16, 24]: 60
2 | Cc1cc(C2CNC(=O)C2C(=O)Nc2cccc(F)c2F)cs1 (racemic) [Compound 656] | 60 | 90 | 90 | 30 | 20 | 30 | 0 | 20 | 90 | 0 | 0 | 20 | 0 | 0 | 0 | 0 | 50 | 100 | 0 | 0 | Plant response rating, Kochia [1, 25]: 50; Plant response rating, Barnyardgrass [2, 25]: 90; Plant response rating, Foxtail, Giant [3, 25]: 90; Plant response rating, Pigweed [4, 25]: 40; Plant response rating, Ragweed [5, 25]: 60; Plant response rating, Ryegrass, Italian [6, 25]: 60; Plant response rating, Galium [7, 26]: 60; Plant response rating, Kochia [8, 26]: 30; Plant response rating, Barnyardgrass [9, 26]: 90; Plant response rating, Blackgrass [10, 26]: 30; Plant response rating, Corn [11, 26]: 20; Plant response rating, Foxtail, Giant [12, 26]: 60; Plant response rating, Pigweed [13, 26]: 0; Plant response rating, Ragweed [14, 26]: 0; Plant response rating, Ryegrass, Italian [15, 26]: 0; Plant response rating, Wheat [16, 26]: 20
